Data from patent publication US20240400606A1, “SMALL MOLECULE ACTIVATORS OF THE IMMUNE SYSTEM” (THE BOARD OF TRUSTEES OF THE UNIVERSITY OF ILLINOIS, priority 2021, published 2024).
Entries after “also recorded” stand apart in the source; their conditions may differ.

Columns and labels:
[1] = molecular target: SULT2B1b (Homo sapiens (Human), UniProt O00204); test: LC-MS/MS based in vitro assay (DHEA-sulfate formation); type: biochemical; conditions: 100 μM compound, 2 hours; mean±s.e.m., n=3
Description: LC-MS/MS Based In Vitro Assay. Stock solutions of DHEA (5 mM in DMSO) and compound of interest (5 mM in DMSO) were prepared. […] SULT2B1b was diluted to 1.5 μg/μL in protein storage buffer then down to 0.8 μg/μL in 1× activity assay buffer. 30 μL of 0.8 μg/μL SULT2B1b was added to each reaction. Reactions were incubated for 2 hours at 37° C. with shaking at 250 rpm. To quench, 30 μL reaction mix was added to 30 μL ice cold 0.5% HCl in MeCN, then centrifuged at 13,000 xg at room temperature for 3 min. 50 μL supernatant was transferred to an empty Eppendorf tube and submitted for LC-MS/MS quantification (UIUC Metabolomics Center), along with 5 mM DHEA sulfate standard. Controls: Reaction mix made with DHEA and DMSO in place of compound of interest (DHEA control). […] General LC-MS/MS Quantification Method. Both DHEAS and CS samples were analyzed by 6500 QTRAP (Sciex, Redwood City, CA) liquid chromatography-tandem mass spectrometry. […] The flow rate was 0.3 mL/min. […] The source temperature was 400° C. […] Cholesterol-sulfate and DHEA-sulfate were detected by multiple reaction monitoring (MRM) at m/z 465→97.0 and 367.0→97.0 respectively. Software Analyst 1.7.1 ([…]) was used for data acquisition and analysis.

[2] = test system: whole cell CS levels in MCF-7; test: Whole cell cholesterol sulfate quantification, MCF-7; type: cell-based, human; conditions: for whole cell CS levels vs DMSO: MCF-7, 6.25 μM compound, 72 hours
Description: (§1) General Whole Cell Cholesterol Sulfate Quantification. 60×15 mm tissue culture dishes were seeded with MCF-7 at 2×10^6 cells/dish or T47D at 1×10^6 cells per dish, 5 mL total media volume, and allowed to adhere overnight. Compounds of interest were dissolved in DMSO. Cells were treated with 25 μL 1.25 mM compound of interest stock (6.25 μM final compound concentration, 0.5% final DMSO concentration) or DMSO for 72 hours. To harvest, media was aspirated, and cells were washed once with PBS before detaching with trypsin. Trypsin was quenched with media. Cells were centrifuged at 300 xg for 3 minutes and supernatant was discarded. Cells were resuspended in media and counted using a Countess 3 automated cell counter (Thermo Fisher Scientific). 1.5×10^6 cells were collected, washed twice with 1 mL PBS, then pelleted and stored at −80° C. until lysis. Cell pellets were resuspended in 200 μL cold 70:30 methanol:water and placed on ice. Cell suspension was sonicated on ice (30%, 10 s on, 20 s off, 1 min total) and continued to be incubated on ice for 30 minutes. Lysate was clarified by centrifugation at 14,100 xg at 4° C. for 30 minutes. 100 μL of supernatant was transferred to an empty Eppendorf tube and submitted for LC-MS/MS quantification (UIUC Metabolomics Center), along with 5 mM cholesterol sulfate sodium salt standard.
as §1, with “Time Course Whole Cell” for “General Whole Cell”, “2×10^6 cells/dish per dish,” for “2×10^6 cells/dish or T47D at 1×10^6 cells per dish,”, “DMSO for 0 (harvested immediately), 4, 8, 24, 48, or 72 hours.” for “DMSO for 72 hours.”
Whole Cell Cholesterol Sulfate Quantification with Compound Removal. 60×15 mm tissue culture dishes were seeded with MCF-7 at 2×10^6 cells/dish, 5 mL total media volume, and allowed to adhere overnight. Compounds of interest were dissolved in DMSO. Cells were treated with 25 μL 1.25 mM compound of interest stock (6.25 μM final compound concentration, 0.5% final DMSO concentration) for 0 hours (harvested immediately) or 24 hours. Media was aspirated and replaced with 5 mL fresh media, then cells were either harvested (24 hour time point) or further incubated. To harvest, media was aspirated, and cells were washed once with PBS before detaching with trypsin. Trypsin was quenched with media. Cells were centrifuged at 300 xg for 3 minutes and supernatant was discarded. Cells were resuspended in media and counted using a Countess 3 automated cell counter (Thermo Fisher Scientific). 1.5×10^6 cells were collected, washed twice with 1 mL PBS, then pelleted and stored at −80° C. until lysis. Cell pellets were resuspended in 200 μL cold 70:30 methanol:water and placed on ice. Cell suspension was sonicated on ice (30%, 10 s on, 20 s off, 1 min total) and continued to be incubated on ice for 30 minutes. Lysate was clarified by centrifugation at 14,100 xg at 4° C. for 30 minutes. […]

[3] = test system: MCF-7 cells; test: Alamar blue cellular cytotoxicity, MCF-7; type: cell-based; conditions: MCF-7, 72 hours
Description: Alamar Blue Fluorescence for Cellular Activity (IC50). Cells were seeded per well in a 96-well plate (5000 for MCF-7, 4000 for T47D, 7000 for mouse embryonic fibroblasts) and allowed to adhere before DMSO solutions of compounds were added to each well. Final concentration of DMSO in each well is 1%, final volume: 100 μL. At the end of 72 hours, Alamar Blue solution was added (10 μL of 1 mg resazurin per 10 mL PBS). After 2-4 hours incubation, fluorescence (λexcit.=555 nm, λemission.=585 nm) was measured. The fluorescence of each well was read with a SpectraMax M3 plate reader (Molecular Devices). Percent dead was determined by comparison to a 100% dead control: 100 μM Raptinal treated cells.
Whole cell cytotoxicity-MCF-7. Cell cytotoxicity was assessed to ensure compound concentrations used the whole cell assays would not kill the cells. Alamar blue cell cytotoxicity assay: 5000 cells were seeded per well in a 96-well plate and allowed to adhere before DMSO solutions of compounds were added to each well. Final concentration of DMSO in each well is 1%, with a final volume of 100 μl. […] After 2 to 4 hours of incubation, fluorescence (λexcitation=555 nm, λemission=585 nm) was measured. Percent dead was determined by comparison to a 100% dead control: 100 μM Raptinal-treated cells (FIG. 6).

Sequence of SULT2B1b (O00204 whole entry): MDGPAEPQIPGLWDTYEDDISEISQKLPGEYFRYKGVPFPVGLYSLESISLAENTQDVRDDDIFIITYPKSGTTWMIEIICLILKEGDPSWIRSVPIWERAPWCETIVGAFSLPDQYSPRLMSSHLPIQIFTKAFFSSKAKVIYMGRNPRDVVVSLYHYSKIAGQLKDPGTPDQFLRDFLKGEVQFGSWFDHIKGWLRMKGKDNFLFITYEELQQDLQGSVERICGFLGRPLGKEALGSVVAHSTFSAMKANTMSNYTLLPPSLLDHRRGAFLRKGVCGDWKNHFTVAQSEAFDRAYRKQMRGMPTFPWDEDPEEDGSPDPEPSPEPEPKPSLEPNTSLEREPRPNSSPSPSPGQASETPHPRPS

SMILES	inhibition at 100 µM [1]	whole cell CS levels vs DMSO [2]	suitable sub-lethal treatment concentration [3]	whole cell CS levels vs DMSO ([2]; listed as 2-273)	CS level rebound after compound removal ([2]; MCF-7, 6.25 μM for 24 hours, then compound-free media up to 48 hours)	time of constant treatment to significantly decreased whole cell CS levels ([2]; MCF-7, 6.25 μM, time course)	treatment concentration showing a decrease in CS levels (whole cell dose response) ([2]; MCF-7, 72 hour treatment)
C[C@]12CC[C@H](O)CC1=CC[C@@H]1[C@@H]2CC[C@]2(C)C(n3cnc4ccccc43)=CC[C@@H]12 [Compound 2, Galeterone, reference compound]	57 ± 0.7%	did decrease CS levels	–	–	–	–	–
C[C@]12CCC(=O)N(Cc3ccc(Br)cc3)C1=CC[C@@H]1[C@@H]2C(=O)C[C@]2(C)C(=O)CC[C@@H]12 [Compound 3, (4aR,4bS,6aS,9aS,9bS)-1-(4-bromobenzyl)-4a,6a-dimethyl-3,4,4a,6,6a,8,9,9a,9b,10-decahydro-1H-indeno[5,4-f]quinoline-2,5,7(4bH)-trione]	72.8 ± 0.1%	significant decrease	6.25 µM	significantly decrease; also recorded: significant (p=0.0003) reduction	did not rebound	≤ 24 h	≤ 0.097 µM
C[C@]12CCC(=O)N(Cc3ccc(Cl)cc3)C1=CC[C@@H]1[C@@H]2C(=O)C[C@]2(C)C(=O)CC[C@@H]12 [Compound 1, (4aR,4bS,6aS,9aS,9bS)-1-(4-chlorobenzyl)-4a,6a-dimethyl-3,4,4a,6,6a,8,9,9a,9b,10-decahydro-1H-indeno[5,4-f]quinoline-2,5,7(4bH)-trione]	67.8 ± 0.5%	significantly decrease	6.25 µM	–	–	–	–
